# Assay results from ChEMBL document CHEMBL5096191 (J Med Chem, 2021).
# Legend:
# Assay type in all cases: functional, cell-based
# [1] = target: T1, Cannabinoid receptor 2 (Homo sapiens, UniProt P34972); assay: Partial agonist activity at wild type CB2 receptor (unknown origin) stably expressed in HEK293T assessed as decrease in forskolin induced cAMP level preincubated for 15 mins followed by forskolin addition incubated for 15 mins by HTRF assay relative to control; details: filed as partial agonist, time 30.0 min
# T1 sequence (P34972 whole entry): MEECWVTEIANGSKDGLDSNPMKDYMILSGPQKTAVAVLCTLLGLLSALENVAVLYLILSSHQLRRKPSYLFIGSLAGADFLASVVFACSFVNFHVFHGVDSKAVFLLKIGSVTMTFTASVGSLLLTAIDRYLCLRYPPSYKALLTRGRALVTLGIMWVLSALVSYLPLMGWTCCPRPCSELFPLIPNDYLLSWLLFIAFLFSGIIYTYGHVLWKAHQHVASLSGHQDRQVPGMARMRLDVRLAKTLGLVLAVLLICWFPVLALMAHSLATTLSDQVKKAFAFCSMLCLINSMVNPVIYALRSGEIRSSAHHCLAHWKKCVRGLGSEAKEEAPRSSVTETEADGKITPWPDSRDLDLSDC
# [2] = target: T1, Cannabinoid receptor 2; assay: Partial agonist activity at wild type CB2 receptor (unknown origin) stably expressed in HEK293T assessed as decrease in forskolin induced cAMP level preincubated for 15 mins followed by forskolin addition incubated for 15 mins in presence of cannabidiol by HTRF assay relative to control; details: filed as partial agonist, time 30.0 min
# [3] = target: T2, Cannabinoid receptor 2 (Homo sapiens, UniProt P34972, V113M); assay: Partial agonist activity at CBR2 V1133.32M mutant (unknown origin) stably expressed in HEK293T assessed as decrease in forskolin induced cAMP level preincubated for 15 mins followed by forskolin addition incubated for 15 mins by HTRF assay
# T2 sequence (P34972 whole entry V113M): as the sequence (P34972 whole entry) above, with V113M counted along it
# [4] = tested on: Cannabinoid receptor 2 (Homo sapiens), P34972 [V113M]; assay: Partial agonist activity at CBR2 V1133.32M mutant (unknown origin) stably expressed in HEK293T assessed as decrease in forskolin induced cAMP level preincubated for 15 mins followed by forskolin addition incubated for 15 mins in presence of cannabidiol by HTRF assay relative to control; details: filed as partial agonist, time 30.0 min
# Sequence of Cannabinoid receptor 2 (Homo sapiens), P34972 [V113M] (P34972 whole entry V113M): as the sequence (P34972 whole entry) above, with V113M counted along it
# [5] = target: T3, Cannabinoid receptor 2 (Homo sapiens, UniProt P34972, V36M); assay: Partial agonist activity at CBR2 V361.35M mutant (unknown origin) stably expressed in HEK293T assessed as decrease in forskolin induced cAMP level preincubated for 15 mins followed by forskolin addition incubated for 15 mins by HTRF assay
# T3 sequence (P34972 whole entry V36M): as the sequence (P34972 whole entry) above, with V36M counted along it
# [6] = target: Cannabinoid receptor 2 (Homo sapiens, UniProt P34972, A282M); assay: Partial agonist activity at CBR2 A2827.36M mutant (unknown origin) stably expressed in HEK293T assessed as decrease in forskolin induced cAMP level preincubated for 15 mins followed by forskolin addition incubated for 15 mins by HTRF assay
# Sequence of Cannabinoid receptor 2 (Homo sapiens, UniProt P34972, A282M) (P34972 whole entry A282M): as the sequence (P34972 whole entry) above, with A282M counted along it
# [7] = tested on: Cannabinoid receptor 2 (Homo sapiens), P34972 [A282M]; assay: Partial agonist activity at CBR2 A2827.36M mutant (unknown origin) stably expressed in HEK293T assessed as decrease in forskolin induced cAMP level preincubated for 15 mins followed by forskolin addition incubated for 15 mins in presence of cannabidiol by HTRF assay relative to control; details: filed as partial agonist, time 30.0 min
# Sequence of Cannabinoid receptor 2 (Homo sapiens), P34972 [A282M] (P34972 whole entry A282M): as the sequence (P34972 whole entry) above, with A282M counted along it
# [8] = target: T4, Cannabinoid receptor 2 (Homo sapiens, UniProt P34972, S285L); assay: Partial agonist activity at CBR2 S2857.39L mutant (unknown origin) stably expressed in HEK293T assessed as decrease in forskolin induced cAMP level preincubated for 15 mins followed by forskolin addition incubated for 15 mins in presence of cannabidiol by HTRF assay
# T4 sequence (P34972 whole entry S285L): as the sequence (P34972 whole entry) above, with S285L counted along it
# [9] = target: T1, Cannabinoid receptor 2; assay: Partial agonist activity at wild type CB2 receptor (unknown origin) expressed in HEK293T assessed as increase in ERK1/2 phosphorylation incubated for 7 mins in presence of cannabidiol by AlphaScreenSureFire method relative to control; details: filed as partial agonist
# [10] = target: T2, Cannabinoid receptor 2; assay: Partial agonist activity at CBR2 V1133.32M mutant (unknown origin) expressed in HEK293T assessed as increase in ERK1/2 phosphorylation incubated for 7 mins by AlphaScreenSureFire method
# [11] = tested on: Cannabinoid receptor 2 (Homo sapiens), P34972 [V113M]; assay: Partial agonist activity at CBR2 V1133.32M mutant (unknown origin) expressed in HEK293T assessed as increase in ERK1/2 phosphorylation incubated for 7 mins by AlphaScreenSureFire method relative to control; details: filed as partial agonist
# [12] = target: T3, Cannabinoid receptor 2; assay: Partial agonist activity at CBR2 V361.35M mutant (unknown origin) expressed in HEK293T assessed as increase in ERK1/2 phosphorylation incubated for 7 mins in presence of cannabidiol by AlphaScreenSureFire method
# [13] = tested on: Cannabinoid receptor 2 (Homo sapiens), P34972 [V36M]; assay: Partial agonist activity at CBR2 V361.35M mutant (unknown origin) expressed in HEK293T assessed as increase in ERK1/2 phosphorylation incubated for 7 mins by AlphaScreenSureFire method relative to control; details: filed as partial agonist
# Sequence of Cannabinoid receptor 2 (Homo sapiens), P34972 [V36M] (P34972 whole entry V36M): as the sequence (P34972 whole entry) above, with V36M counted along it
# [14] = tested on: Cannabinoid receptor 2 (Homo sapiens), P34972 [V36M]; assay: Partial agonist activity at CBR2 V361.35M mutant (unknown origin) expressed in HEK293T assessed as increase in ERK1/2 phosphorylation incubated for 7 mins in presence of cannabidiol by AlphaScreenSureFire method relative to control; details: filed as partial agonist
# [15] = target: T4, Cannabinoid receptor 2; assay: Partial agonist activity at CBR2 S2857.39L mutant (unknown origin) expressed in HEK293T assessed as increase in ERK1/2 phosphorylation incubated for 7 mins by AlphaScreenSureFire method
# [16] = tested on: Cannabinoid receptor 2 (Homo sapiens), P34972 [S285L]; assay: Partial agonist activity at CBR2 S2857.39L mutant (unknown origin) expressed in HEK293T assessed as increase in ERK1/2 phosphorylation incubated for 7 mins by AlphaScreenSureFire method relative to control; details: filed as partial agonist
# Sequence of Cannabinoid receptor 2 (Homo sapiens), P34972 [S285L] (P34972 whole entry S285L): as the sequence (P34972 whole entry) above, with S285L counted along it
# [17] = tested on: Cannabinoid receptor 2 (Homo sapiens), P34972 [S285L]; assay: Partial agonist activity at CBR2 S2857.39L mutant (unknown origin) expressed in HEK293T assessed as increase in ERK1/2 phosphorylation incubated for 7 mins in presence of cannabidiol by AlphaScreenSureFire method relative to control; details: filed as partial agonist
# [18] = target: T1, Cannabinoid receptor 2; assay: Partial agonist activity at wild type CB2 receptor (unknown origin) expressed in HEK293T assessed as increase in picometer shifts of reflected light wavelengths by DMR assay
# [19] = target: T1, Cannabinoid receptor 2; assay: Partial agonist activity at wild type CB2 receptor (unknown origin) expressed in HEK293T assessed as increase in picometer shifts of reflected light wavelengths in presence of cannabidiol by DMR assay
# [20] = target: T1, Cannabinoid receptor 2; assay: Positive allosteric modulation of JWH-133-induced agonist activity at wild type CB2 receptor (unknown origin) stably expressed in HEK293T cells assessed as inhibition of forskolin-stimulated cAMP levels preincubated for 15 mins followed by forskolin addition incubated for 15 mins by HTRF assay
# [21] = tested on: Cannabinoid receptor 2 (Homo sapiens), P34972 [V113M]; assay: Partial agonist activity at CBR2 V1133.32M mutant (unknown origin) expressed in HEK293T assessed as increase in picometer shifts of reflected light wavelengths by DMR assay relative to control; details: filed as partial agonist
# [22] = target: T3, Cannabinoid receptor 2; assay: Partial agonist activity at CBR2 V361.35M mutant (unknown origin) expressed in HEK293T assessed as increase in picometer shifts of reflected light wavelengths by DMR assay
# [23] = target: T3, Cannabinoid receptor 2; assay: Partial agonist activity at CBR2 V361.35M mutant (unknown origin) expressed in HEK293T assessed as increase in picometer shifts of reflected light wavelengths in presence of cannabidiol by DMR assay
# [24] = tested on: Cannabinoid receptor 2 (Homo sapiens), P34972 [V36M]; assay: Partial agonist activity at CBR2 V361.35M mutant (unknown origin) expressed in HEK293T assessed as increase in picometer shifts of reflected light wavelengths by DMR assay relative to control; details: filed as partial agonist
# [25] = tested on: Cannabinoid receptor 2 (Homo sapiens), P34972 [S285L]; assay: Partial agonist activity at CBR2 S2857.39L mutant (unknown origin) expressed in HEK293T assessed as increase in picometer shifts of reflected light wavelengths by DMR assay relative to control; details: filed as partial agonist
# [26] = tested on: Cannabinoid receptor 2 (Homo sapiens), P34972 [S285L]; assay: Partial agonist activity at CBR2 S2857.39L mutant (unknown origin) expressed in HEK293T assessed as increase in picometer shifts of reflected light wavelengths in presence of cannabidiol by DMR assay relative to control; details: filed as partial agonist
smiles,measurement,setting,value
CCCC(C)(C)c1cc(O)c2c(c1)OC(C)(C)[C@@H]1CC=C(C)C[C@@H]21,Emax,[1],46%
same,Emax,[2],57.8%
same,EC50,[3],20 nM
same,Emax,[4],77.8%
same,EC50,[5],12.6 nM
same,EC50,[6],12.6 nM
same,Emax,[7],48.8%
same,EC50,[8],39.8 nM
same,Emax,[9],250%
same,EC50,[10],20 nM
same,Emax,[11],276%
same,EC50,[12],39.8 nM
same,Emax,[13],363%
same,Emax,[14],353%
same,EC50,[15],39.8 nM
same,Emax,[16],374%
same,Emax,[17],291%
same,EC50,[18],631 nM
same,EC50,[19],631 nM
same,EC50,[20],25.1 nM
same,Emax,[21],79.9%
same,EC50,[22],631 nM
same,EC50,[23],631 nM
same,Emax,[24],193%
same,Emax,[25],223%
same,Emax,[26],165%
